Measurements published in PMC10608985, “Retention Behavior of Anticancer Thiosemicarbazides in Biomimetic Chromatographic Systems and In Silico Calculations” (Molecules, 2023).

Key:
[1] = HPLC lipophilicity on IAM (immobilized artificial membrane, phosphatidylcholine) stationary phase; type: physicochemical; settings: pH 7.4; for Log k IAM: Table S2; for log kw IAM: intercept, linear extrapolation to water; for log kw IAM / -S IAM: ACN/20 mM phosphate buffer; for -S IAM: slope of Soczewiński–Wachtmeister equation
Experimental: (§1) For the evaluation of the compounds the following stationary phases were used: C-18; biomimetic, IAM; cholesterol (Chol); immobilized proteins HSA and AGP. For the lipophilicity determination, MeOH (C-18, Chol) or ACN (IAM) were applied as the organic modifiers. The measurements were performed at pH 7.4 of the mobile phase. The regular changes in the retention of all solutes used as organic modifier content in the mobile phase on three studied stationary phases were found. It is expressed by the Soczewiński–Wachtmeister Equation (1):log k = log kw + S (% organic modifier)(1) where log kw—the intercept; S—the slope of regression curve. […] Log kw as well as S parameters are commonly applied as lipophilicity descriptors.
(§2) HPLC measurements were performed using a liquid chromatograph Knauer (Knauer, Berlin, Germany) with a dual pump, a 20 µL simple injection valve, and a UV–visible detector. The compounds were detected under UV light at 280 nm at room temperature. The retention time of an unretained solute (t0) was determined by the injection of a small amount of citric acid dissolved in water.
A Rexchrom IAM.PC.DD2 (12 μm, 100 × 4.6 mm, 300 Å) (Regis Technologies, Morton Grove, IL, USA) column was used as the stationary phase. The compounds were dissolved at a concentration of 0.5 mg × mL^−1 in MeOH. The mobile phases consisted of different volume fractions of ACN and 20 mM phosphate buffer; the aqueous phase maintained a pH = 7.4 (0.02 M KH2PO4, Na2HPO4 and 0.15 M KCl). The acetonitrile concentration ranged from 0.05 to 0.4 (v/v), depending on the structure of compound, at 0.05 intervals (Table S2 in the Supplementary Materials). The flow rate was 1 mL × min^−1.

[2] = HPLC lipophilicity on cholesterol (Chol) stationary phase; type: physicochemical; settings: pH 7.4; for Log k Chol: Table S3; for log kw Chol: intercept, linear extrapolation to water; for log kw Chol / -S Chol: MeOH/20 mM acetate buffer; for -S Chol: slope of Soczewiński–Wachtmeister equation
Experimental: as §1, §2
Cogent 4 UDC Cholesterol (150 × 2.1 mm, 4 µm) MicroSolv Technology Corporation (Leland, NC, USA) column was used. The mobile phase consisted of different volume mixtures of MeOH as the organic modifier and 20 mM acetate buffer as the aqueous phase, to obtain pH = 7.4. The concentrations of the organic modifier were in the range from 0.3 to 0.8 (v/v) with step 0.05 or 0.1 (Table S3 in the Supplementary Materials). The flow rate was 0.35 mL × min^−1.

[3] = test system: α1-acid glycoprotein (AGP); assay: HPLC on immobilized AGP column, affinity and % plasma–protein binding; type: in vitro ADME, human; settings: for log K AGP: binding equilibrium constant from calibration curve (Equation 9) of log k AGP; for fraction unbound: human, pH 7.4, % plasma–protein binding converted from log K AGP (Equation 10), read-out: %PPB AGP (converted); for log k AGP: retention on AGP column, 50 mM ammonium acetate pH 7.4 / propan-2-ol 85/15 (v/v)
Experimental: (§3) Measurements on HSA and AGP immobilized protein columns were carried out with […] isopropanol content in the aqueous mobile phase.
(§4) The standard calibration curve was used to predict log K values (K—binding equilibrium constant) of investigated compounds to HSA and AGP. Next, the log K values were converted into a percentage of plasma–protein binding (%PPB) of the compounds (Table 2). […] It is the lowest for compound 16 with -NO2 substituent, unsubstituted compound 1, and fluorine derivatives 2 and 9. In a group of […] derivatives in the same position of the phenyl ring, the %PPB to AGP increases with the increase in the atomic weight of the halogen atom and the lipophilicity of the molecule.
as §2
(§5) A human serum albumin (HSA) immobilized on the 5 µm silica gel column 100 × 3 mm (Chiralpac) and an α1-acid glycoprotein (AGP) immobilized on the 5 µm silica gel column 100 × 4 mm (Chiralpac) were used. The compounds were dissolved at 0.5 mg/mL concentration in 50% propan-2-ol and ammonium acetate solution (pH = 7.4) mixtures for HSA measurements. The mobile phase was composed of 50 mM ammonium acetate solution (pH = 7.4) and propan-2-ol at 85/15 (v/v) for AGP, respectively. The flow of mobile phases was 0.5 mL×min^−1. Log k values for the selected mobile phase were determined for all studied compounds and standard substances. The % protein plasma binding (% PPB) values were calculated from the calibration curve according to Valko et al..
(§6) Calibration of the protein columns: The column performance check and the calibration check were performed before measurements. The racemic mixture of warfarin was used for their performance evaluation. The following calibration set of drugs was applied: bromazepam, carbamazepine, diclofenac, nicardipine, nizatidine, piroxicam for HSA and bromazepam, chlorpromazine, imipramine, nicardipine, nizatidine, propranolol, and warfarin for AGP. The analytical standards were purchased from Sigma Aldrich Steinhen, Steinheim am Albuch, Germany). The drugs were dissolved at 0.5 mg/mL concentration in 50% propan-2-ol and ammonium acetate solution mixtures (pH = 7.4). The obtained log k values from HPLC were plotted against the log K values (K—binding equilibrium constant, log K—linearized PPB) based on the literature data for plasma–protein binding (%, PPB). The following relationships were obtained: log KHSA = 0.2513 (±0.0984) + 1.0525 (±0.1171) log k HSA(8) n=6, R=0.9761, R^2 = 0.9528, Radj2 = 0.9410, s = 0.1948 log KAGP = 0.1733 (±0.0574) + 0.8902 (±0.0787) log k AGP(9) n=7, R=0.9810, R^2 = 0.9623, Radj2 = 0.9548, s = 0.1113
(§7) Log K values were converted into %PPB using the following equation [15]:(10) %PPB=101×10^logK/1+10^logK

[4] = design: method as in Kozyra et al. [31]; settings: MeOH/20 mM acetate buffer, pH 7.4, ref Kozyra et al. [31], cited from earlier work; for log kw C-18: intercept of Soczewiński–Wachtmeister equation (water as mobile phase); for -S C-18: slope of Soczewiński–Wachtmeister equation
[5] = molecular target: T1, human serum albumin (HSA) (Homo sapiens, UniProt P02768); assay: HPLC on immobilized HSA column, affinity and % plasma–protein binding; type: in vitro ADME; settings: for log K HSA: binding equilibrium constant from calibration curve (Equation 8) of log k HSA; for fraction unbound: human, pH 7.4, % plasma–protein binding converted from log K HSA (Equation 10), read-out: %PPB HSA (converted); for log k HSA: retention on HSA column, 50 mM ammonium acetate pH 7.4 / propan-2-ol 85/15 (v/v)
T1 construct: purchased Chiralpac
T1 sequence (P02768 25-609): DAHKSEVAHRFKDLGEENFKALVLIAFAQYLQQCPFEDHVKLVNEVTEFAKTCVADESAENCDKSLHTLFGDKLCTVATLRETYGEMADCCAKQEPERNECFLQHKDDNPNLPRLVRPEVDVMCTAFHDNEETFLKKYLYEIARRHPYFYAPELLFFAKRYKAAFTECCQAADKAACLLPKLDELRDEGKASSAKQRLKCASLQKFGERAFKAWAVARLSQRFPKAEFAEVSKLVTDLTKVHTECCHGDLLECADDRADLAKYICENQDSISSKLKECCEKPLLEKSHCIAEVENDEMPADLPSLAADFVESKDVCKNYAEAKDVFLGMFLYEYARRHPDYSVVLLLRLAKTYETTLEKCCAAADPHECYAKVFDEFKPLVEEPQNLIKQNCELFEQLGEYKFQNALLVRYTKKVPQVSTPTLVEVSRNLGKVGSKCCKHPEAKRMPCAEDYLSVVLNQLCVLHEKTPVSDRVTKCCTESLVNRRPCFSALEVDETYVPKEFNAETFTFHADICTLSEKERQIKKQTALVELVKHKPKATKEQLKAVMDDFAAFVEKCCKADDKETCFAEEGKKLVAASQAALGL
Experimental: as §3, §4, §2, §5, §6, §7

SMILES | Log k IAM ([1]; ACN 0.15 v/v in mobile phase) | Log k IAM ([1]; ACN 0.20 v/v in mobile phase) | Log k IAM ([1]; ACN 0.25 v/v in mobile phase) | Log k IAM ([1]; ACN 0.30 v/v in mobile phase) | Log k IAM ([1]; ACN 0.35 v/v in mobile phase) | log kw IAM [1] | -S IAM [1] | Log k Chol ([2]; MeOH 0.45 v/v in mobile phase) | Log k Chol ([2]; MeOH 0.50 v/v in mobile phase) | Log k Chol ([2]; MeOH 0.60 v/v in mobile phase) | Log k Chol ([2]; MeOH 0.80 v/v in mobile phase) | log kw Chol [2] | -S Chol [2] | log K AGP [3] | fraction unbound [3] | log k AGP [3] | log kw C-18 [4] | -S C-18 [4] | log K HSA [5] | fraction unbound [5] | also measured
O=C(COc1ccccc1)NNC(=S)Nc1cccc2ccccc12 [Compound 18] | 0.809 | 0.533 | 0.278 | -0.130 | -0.258 | 1.6606 | 5.6500 | 0.758 | 0.405 | 0.062 | -1.016 | 3.0227 | 5.0400 | 0.7514 | 0.142 | 0.6494 | 2.6769 | 4.6919 | 1.5246 | 0.019 | Log k IAM ([1]; ACN 0.10 v/v in mobile phase): 1.105; Log k Chol ([2]; MeOH 0.30 v/v in mobile phase): 1.494; Log k Chol ([2]; MeOH 0.35 v/v in mobile phase): 1.296; Log k Chol ([2]; MeOH 0.40 v/v in mobile phase): 1.025; log k HSA [5]: 1.2098
O=C(COc1ccccc1)NNC(=S)Nc1ccccc1Cl [Compound 3] | 0.794 | 0.515 | 0.291 | -0.138 | -0.209 | 1.5588 | 5.2422 | 0.461 | 0.198 | -0.068 | -1.020 | 2.3437 | 4.1573 | 0.5523 | 0.211 | 0.4257 | 2.3929 | 4.5312 | 1.2059 | 0.049 | Log k IAM ([1]; ACN 0.10 v/v in mobile phase): 1.022; Log k Chol ([2]; MeOH 0.30 v/v in mobile phase): 1.024; Log k Chol ([2]; MeOH 0.35 v/v in mobile phase): 0.917; Log k Chol ([2]; MeOH 0.40 v/v in mobile phase): 0.759; log k HSA [5]: 0.9070
O=C(COc1ccccc1)NNC(=S)Nc1ccc(Cl)c(Cl)c1 [Compound 15] | 1.542 | 1.032 | 0.667 | 0.158 | -0.062 | 2.5780 | 7.5617 | 1.349 | 1.013 | 0.792 | -0.876 | 4.2283 | 6.2128 | 0.9150 | 0.099 | 0.8332 | 3.3757 | 5.3305 | 1.8712 | 0.003 | Log k IAM ([1]; ACN 0.40 v/v in mobile phase): -0.346; Log k Chol ([2]; MeOH 0.70 v/v in mobile phase): -0.087; log k HSA [5]: 1.5391
O=C(COc1ccccc1)NNC(=S)Nc1cccc(F)c1 [Compound 5] | 0.565 | 0.312 | 0.024 | -0.274 | -0.441 | 1.4283 | 5.5312 | 0.487 | 0.184 | -0.057 | -1.065 | 2.4598 | 4.3726 | 0.5586 | 0.209 | 0.4328 | 2.4592 | 4.7921 | 1.1581 | 0.056 | Log k IAM ([1]; ACN 0.05 v/v in mobile phase): 1.193; Log k IAM ([1]; ACN 0.10 v/v in mobile phase): 0.876; Log k Chol ([2]; MeOH 0.35 v/v in mobile phase): 0.957; Log k Chol ([2]; MeOH 0.40 v/v in mobile phase): 0.699; log k HSA [5]: 0.8615
